According to ChEMBL document CHEMBL1201862, “PubChem BioAssay data set” (2004):
Active and inactive are the calls of the source. Rule as the data show it, for most assays here: actives have a measured EC50 and inactives only a lower limit.

Assays:
[1] = molecular target: T1, Cytochrome P450 1A2 (Homo sapiens, UniProt P05177);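 also: PubChem cytochrome P450 panel assay, CYP1A2 panel member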
T1 sequence (P05177 whole entry): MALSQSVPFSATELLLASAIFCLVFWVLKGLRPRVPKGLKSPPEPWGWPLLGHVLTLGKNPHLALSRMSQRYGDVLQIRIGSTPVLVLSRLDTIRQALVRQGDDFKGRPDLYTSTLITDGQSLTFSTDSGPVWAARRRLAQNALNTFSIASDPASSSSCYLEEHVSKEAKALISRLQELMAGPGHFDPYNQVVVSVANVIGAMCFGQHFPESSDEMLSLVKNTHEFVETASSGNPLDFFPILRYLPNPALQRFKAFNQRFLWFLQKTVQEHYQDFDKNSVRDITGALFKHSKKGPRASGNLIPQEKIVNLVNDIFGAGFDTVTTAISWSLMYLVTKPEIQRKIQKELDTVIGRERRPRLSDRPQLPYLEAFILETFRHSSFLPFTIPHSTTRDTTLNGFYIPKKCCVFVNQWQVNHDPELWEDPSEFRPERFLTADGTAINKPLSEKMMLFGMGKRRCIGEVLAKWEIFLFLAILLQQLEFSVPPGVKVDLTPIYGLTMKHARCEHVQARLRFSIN

[2] = Luminescence Cell-Based Dose Retest to Confirm Inhibitors of Cancer Stem Cells. [Related pubchem assays (depositor defined):AID2717, AID2721]; format: functional; conditions: Homo sapiens
[3] = tested on: Streptococcus sp. 'group A'; assay: growth inhibition of control SK(-) GAS strain, dose response, counter-screen for streptokinase expression inhibitor project, luminescence, kanamycin, BacTiterGlo, confirmation (AID 1900); format: functional, organism-based
[4] = tested on: Streptococcus; assay: Group A Streptococcus viability loss, dose response, counter-screen for streptokinase expression inhibitor project, luminescence, BacTiterGlo (AID 1915); format: functional, organism-based;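 also: potency for reduction of bacterial viability or growth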
[5] = molecular target: T2, Streptokinase A (Streptococcus pyogenes serotype M1, UniProt P10520); assay: S. pyogenes streptokinase expression inhibitors, potency, dose response, plasminogen activation absorbance, OD405 (AID 1914); format: functional, Streptococcus pyogenes M1 GAS;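 also: secreted streptokinase activity via plasminogen activation per viability signal from cell pellet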
T2 sequence (P10520 whole entry): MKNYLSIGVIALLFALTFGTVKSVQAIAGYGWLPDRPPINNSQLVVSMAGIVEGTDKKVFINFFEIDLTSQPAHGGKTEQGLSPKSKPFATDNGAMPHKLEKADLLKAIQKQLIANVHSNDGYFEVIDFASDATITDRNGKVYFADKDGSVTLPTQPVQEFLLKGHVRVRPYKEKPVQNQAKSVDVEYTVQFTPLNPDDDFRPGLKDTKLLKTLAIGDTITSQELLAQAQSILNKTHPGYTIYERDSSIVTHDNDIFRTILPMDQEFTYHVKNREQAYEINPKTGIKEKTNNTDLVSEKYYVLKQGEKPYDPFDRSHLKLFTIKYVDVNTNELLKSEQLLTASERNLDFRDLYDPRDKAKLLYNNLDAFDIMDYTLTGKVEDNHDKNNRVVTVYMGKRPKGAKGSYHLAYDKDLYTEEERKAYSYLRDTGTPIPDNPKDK

| Compound | AC50 [1] | AC50 [2] | EC50 [4] | EC50 [5] | also measured |
| --- | --- | --- | --- | --- | --- |
| N[C@@H](Cn1cc(F)c(=O)[nH]c1=O)C(=O)O | 31.6 µM (inconclusive) |  |  |  |  |
| O=C(c1cnn2c1NC(c1ccc(Br)cc1)CC2C(F)(F)F)N1CCN2CCCC2C1 (stereo unspecified) |  | 1.81 µM (active) |  |  |  |
| C=CCn1c(SCc2ccccc2)nc2scc(-c3ccc(C)o3)c2c1=O | 1.58 µM (inconclusive) |  |  |  |  |
| COC(=O)[C@@]1(Cc2ccccc2)[C@H]2c3cc(C(=O)N4CCCC4)n(Cc4nc5ccccc5[nH]4)c3C[C@H]2CN1C(=O)c1ccccc1 | 12.6 µM (inconclusive) |  |  |  |  |
| Cc1ccc2c(c1)/C(=C1\SC(N(C)c3ccc(O)cc3)=NC1=O)C(=O)N2 |  |  | 16.6 µM (active) | > 150 µM (not active) | EC50 [3]: 6.59 µM (active) |
| O=C(Nc1cccc(Cl)c1N1CCCC1)c1cc2ccccc2o1 |  |  | 20.5 µM (active) | 14.3 µM (active) | EC50 [3]: 8.81 µM (active) |
| N=C1/C(=C\c2ccc(OC(=O)c3ccccc3Cl)cc2)C(=O)N=C2SC(N3CCOCC3)=NN12 |  |  | > 150 µM (not active) | > 150 µM (not active) | EC50 [3]: 37.8 µM (active) |
| O=C(O)CCSc1ccc([N+](=O)[O-])cc1[N+](=O)[O-] |  |  | > 150 µM (not active) | > 150 µM (not active) |  |
| COc1cccc(-c2coc3cc4oc(=O)c(CCC(=O)O)c(C)c4cc23)c1 |  |  | 48.5 µM (active) | > 150 µM (not active) | EC50 [3]: 5.51 µM (active) |
| Cc1cc(NC(=O)CSc2nc3ccsc3c(=O)n2Cc2ccccn2)[nH]n1 | 6.31 µM (inconclusive) |  |  |  |  |
| COc1ccccc1C(=O)NNC(=O)C(=O)Nc1cccc(Cl)c1C |  |  | 16 µM (active) | > 150 µM (not active) | EC50 [3]: 3.78 µM (active) |
| COc1ccc(-c2sc3cc(OC)c(OC)cc3c2C#CC2(O)CCCCC2)cc1 |  | 1.73 µM (active) |  |  |  |
| O=C(/C=C/c1ccc(Br)cc1)NC1CCCCCC1 | 2 µM (inconclusive) |  |  |  |  |
| O=C(O)CCCN1C(=O)/C(=C/c2cn(-c3ccccc3)nc2-c2cccs2)SC1=S |  |  | 7.28 µM (active) | > 150 µM (not active) | EC50 [3]: 5.9 µM (active) |
| S=c1[nH]cnc2scc(-c3ccc(Cl)cc3)c12 |  |  |  | > 150 µM (not active) |  |
| CC1CCN(c2ccccc2NC(=O)c2ccc(Br)o2)CC1 |  |  | 10.3 µM (active) | 43.6 µM (active) | EC50 [3]: 5.4 µM (active) |
| O=[N+]([O-])c1ccccc1-c1ccc(C(=S)N2CCN(c3ccccc3)CC2)o1 |  | > 195 µM (inactive) |  |  |  |
| COc1cc(OC)cc(C(=O)NCCNc2nc3cc(C)cc(C)c3cc2C#N)c1 |  | > 195 µM (inactive) |  |  |  |
| O=C(Nc1ncc(Cc2cccc([N+](=O)[O-])c2)s1)c1ccco1 |  | 1.4 µM (active) |  |  |  |
| C[C@@H](CSc1ccc(Br)cc1)CN1CC[C@H](NC(=O)OCc2ccccc2)CCC1=O |  | 5.92 µM (active) |  |  |  |
| CCC(COC(=O)NC)NC(=O)Oc1ccccc1 (stereo unspecified) | 39.8 µM (inconclusive) |  |  |  |  |
| COc1ccc(-c2sc3cc4c(cc3c2-c2ccc(OCCN3CCOCC3)cc2)OCO4)cc1 |  | 0.29 µM (active) |  |  |  |
| COc1cc(OC)cc(-c2sc3ccc(OC)cc3c2C#CCO)c1 |  | 4.83 µM (active) |  |  |  |
| Cc1cc(C(C)(C)C)c(OC(=O)[C@@H]2OC(c3ccccc3)=C[C@H]2c2ccccc2)c(C(C)(C)C)c1 |  | 5.03 µM (active) |  |  |  |
| CCCS(=O)(=O)N1CCCC(C(=O)N2CCOCC2)C1 (stereo unspecified) | 5.01 µM (inconclusive) |  |  |  |  |
| O=C(Nc1ccc(Cl)cc1C(=O)c1ccccc1Cl)c1ccco1 | 2.51 µM (inconclusive) |  |  |  |  |
| C/C(=N/NC(=O)c1ccc(-c2ccccc2)cc1)c1cc(O)cc(O)c1 |  | 2.97 µM (active) |  |  |  |
| C/C(=N\NS(=O)(=O)c1ccc(C)cc1)c1ccc(C)o1 |  |  | > 150 µM (not active) | > 150 µM (not active) | EC50 [3]: > 150 µM (not active) |
| CN1CCc2cc(Cl)c(O)cc2[C@@H](c2ccccc2)C1 [SCH-23390] | 39.8 µM (inconclusive) |  |  |  |  |
